Assay results: US20050106100A1, “Compounds containing matrix metalloproteinase substrates and methods of their use” (priority 2003, published 2005)

Legend:
Aminopeptidase N [1] = assay: Aminopeptidase N cleavage of test substrates (HPLC); assay type: biochemical; conditions: 1 mM test substrate, 0.02 U APN, 37° C., 25 minutes
Procedure: Aminopeptidase N cleaves amino acids at the N-terminus of proteins and peptides attached to another amino acid. The final attachment in our test substrates consists of an amino acid linked to a hydrazide. The cleavage of this amino acid by aminopeptidases exposes the reactive hydrazide species. Our goal was to study the cleavage of amide bond between an amino acid and a hydrazide by aminopeptidase N. A stock solution of test substrates was prepared in 100% DMSO at a concentration of 25 mM. The stock soluton (6 μL) was added to buffer (50 mM Hepes/pH 7.5, 10 mM CaCl2, 0.1% Brij) for a final concentration of 1 mM test substrate in the reaction. To this reaction mix 0.02 U of the enzyme (APN) was added, the solution was mixed, and immediately 67.5 μL of the mix was transferred to HPLC vials containing 33.2 μL of acetic acid for t=0 minute measurement. The rest of the mix in the test tube was incubated at 37° C. for 25 minutes. At the 25 minutes time point 67.5 μL of the mix was transferred to the HPLC vial containing 33.2 μl of acetic acid for t=25 minute measurement. […] The peak areas were integrated and the substrate peak area was used to determine rate constant k in the following equation: K={(% hydrolyzed/100)*[S]}/[E]*[time] where • S=test substrate concentration in μmoles • E=aminopeptidase N concentration in units/ml • K=μmoles of substrate hydrolyzed/minute/unit enzyme
The procedures of Examples 63 and 64 were used to prepare these additional enamides. The ability of aminopeptidase-N (APN) to remove the terminal amino acid was determined by using the procedure described in Example 46.

Aminopeptidase N [2] = assay: as above; assay type: biochemical; conditions: n = 2; for Rate, hydrolysis of N-terminal residue by APN (value in parenthesis): enzyme concentration […] 10^3 U; for Rate, hydrolysis of N-terminal residue by APN: enzyme concentration […] 10^4 U
THP-1 cells = assay: Lipid bilayer insertion / cell binding of test substrates; assay type: cell-based, human; conditions: live cell suspensions
Procedure: This assay was designed to study localization of test substrates in lipid bilayers of cells. THP-1 cell line a human monocytic cell line was used in this assay. THP-1 cells were washed with phosphate buffered saline (PBS) and 2×10^6 cells were used for each reaction in a 150 μL reaction volume. Test substrates were added to these cell suspensions to give a final concentration of 0.15 mM in the reaction. The reactions were incubated at 37° C. for 1 hour. The test compound in the supernatant was analyzed by HPLC and quantified. The level of compound in the supernatant in the presence and absence of cells was determined and the following ratio was generated: R=Level of compound in absence of cells/level of compound in the presence of cells
The ratio increases with increased binding to cells. A ratio of 1 denotes no binding to cells.

SMILES	Rate of hydrolysis (min^−1, U^−1) (Aminopeptidase N [1])	Rate, hydrolysis of N-terminal residue by APN (value in parenthesis) (Aminopeptidase N [2])	Rate, hydrolysis of N-terminal residue by APN (Aminopeptidase N [2])	further results
CC(C)C[C@H](N)C(=O)NNC(=O)c1ccc(N/N=C\c2ccccc2S(=O)(=O)O)nc1 [Example 7, 2-[2-({5-[N-((2S)-2-Amino-4-methylpentanoylamino)carbamoyl](2-pyridyl)}amino)(1Z)-2-azavinyl]benzenesulfonic Acid]	1.2 μmoles μmoles (min^−1, U^−1)	–	–	–
CC(C)C[C@H](N)C(=O)Nc1ccc(COC(=O)NNC(=O)CCCCCNC(=O)c2ccc(N/N=C/c3ccccc3S(=O)(=O)O)nc2)cc1 [Example 24, 2-((1E)-2-{[5-(N-{5-[N-({[4-((2S)-2-Smino-4-methylpentanoylamino)phenyl]methoxy}carbonylamino)carbamoyl]pentyl}carbamoyl)(2-pyridyl)]amino}-2-azavinyl)benzenesulfonic Acid]	0.52 μmoles μmoles (min^−1, U^−1)	–	–	–
CC(C)C[C@H](N)C(=O)NNc1ccc(C(=O)NCCNC(=O)c2ccc(N/N=C/c3ccccc3S(=O)(=O)O)nc2)cc1 [Example 6, 2-{(1E)-2-[(5-{N-[2-({4-[((2S)-2-Amino-4-methylpentanoylamino)amino]phenyl}carbonylamino)ethyl]carbamoyl}(2-pyridyl))amino]-2-azavinyl}benzenesulfonic Acid]	0 μmoles μmoles (min^−1, U^−1)	–	–	–
COc1ccc2cc(C(=O)NCCCCCC(=O)NNC(=O)[C@@H](N)CC(C)C)c(=O)oc2c1 [Example 9, N-((2S)-2-Amino-4-methylpentanoylamino)-6-[(7-methoxy-2-oxo(2H-chromen-3-yl))carbonylamino]hexanamide]	0.62 μmoles μmoles (min^−1, U^−1)	–	–	–
CCC/C=C(\CCC)NC(=O)[C@H](C)NC(=O)[C@@H](N)CC(C)C [Example 332]	–	0.802 mmol substrate · min^−1 · U enzym^−1	1.89 mmol substrate · min^−1 · U enzym^−1	–
CC(C)C[C@H](N)C(=O)NNC(=O)c1ccc(CNC(=O)c2ccc(N/N=C/c3ccccc3S(=O)(=O)O)nc2)cc1 [Example 8, 2-[(1E)-2-({5-[N-({4-[N-((2S)-2-Amino-4-methylpentanoylamino)carbamoyl]phenyl}methyl)carbamoyl](2-pyridyl)}amino)-2-azavinyl]benzenesulfonic Acid]	0.6 μmoles μmoles (min^−1, U^−1)	–	–	–
CC(=O)NCCCCCC/C=C/NC(=O)[C@@H](N)CC(C)C.O=CO [Example 63, N-[(1E)-8-(Acetylamino)oct-1-enyl](2S)-2-amino-4-methylpentanamide, Formic Acid Salt]	–	0.167 mmol substrate · min^−1 · U enzym^−1	0.202 mmol substrate · min^−1 · U enzym^−1	–
CCC/C=C(\CCC)NC(=O)[C@@H](N)CC(C)C [Example 333]	–	0.209 mmol substrate · min^−1 · U enzym^−1	0.264 mmol substrate · min^−1 · U enzym^−1	–
O=C(CCCCCCCc1ccc(O)cc1)NCCNC(=O)c1ccc(N/N=C/c2ccccc2S(=O)(=O)O)nc1 [Example 26, 2-((1E)-2-Aza-2-{[5-(N-{2-[8-(4-hydroxyphenyl)octanoylamino]ethyl}-carbamoyl)(2-pyridyl)]amino}vinyl)benzenesulfonic Acid]	–	–	–	association with cells (in words) (THP-1 cells): will associate with cells
